Assay results as given in patent publication US6492303B1, “Compositions for protecting a plant from a disease and using method thereof” (priority 1998, dated 2002).

Assays:
rice plant “Nihonbare” [1] = test: Test 1: production of Sakuranetin and Momilactone-A in wounded rice blades treated with DL-methionine/D-glucose solutions; format: in vivo; conditions: rice fifth blades, 25 μl test solution on 1 mm cuts, 60 hours at 25° C. under light; detected amount per cut
Experimental: The structural formula of Sakuranetin is shown in Formula 1, and of Momilactone-A in Formula 2. [drawing 1]
A control section was set up similarly except using 25 μl of distilled water only.
Unit: ng/spot (detected amount per cut)

[2] = system: rice blight (Pyricularia oryzae); format: in vivo; conditions: rice “Nihonbare”, 100 ml sprayed on foliage 24 hours before inoculation, measured ten days after inoculation; Control Section 25.1
Podded pea = conditions: 500 ml per stock sprayed on foliage, aboveground part 72 hours after spraying; Non-treating Section = 100
Experimental: (§1) Above plants in the age of 5-6 blades were employed for the test. […] The application for MG3 and M1 was executed in the form of spraying on the foliage by 500 ml per stock. The analysis of phytoalexins were carried out by sampling the aboveground part of plants 72 hours after the spraying, extracting the samples with acetone followed by chromatographic elution with ethyl acetate through a silica gel, and finally analyzing on an HPLC instrument.

Soybean = conditions: 500 ml per stock sprayed on foliage, aboveground part 72 hours after spraying; Non-treating Section = 100
Experimental: as §1

Beat = conditions: 500 ml per stock sprayed on foliage, aboveground part 72 hours after spraying; Non-treating Section = 100
Experimental: as §1

Potato = conditions: 500 ml per stock sprayed on foliage, aboveground part 72 hours after spraying; Non-treating Section = 100
Experimental: as §1

Carrot = conditions: 500 ml per stock sprayed on foliage, aboveground part 72 hours after spraying; Non-treating Section = 100
Experimental: as §1

Chinese cabbage = conditions: 500 ml per stock sprayed on foliage, aboveground part 72 hours after spraying; Non-treating Section = 100
Experimental: as §1

Tomato = conditions: 500 ml per stock sprayed on foliage, aboveground part 72 hours after spraying; Non-treating Section = 100
Experimental: as §1

Eggplant = conditions: 500 ml per stock sprayed on foliage, aboveground part 72 hours after spraying; Non-treating Section = 100
Experimental: as §1

Grape = conditions: 500 ml per stock sprayed on foliage, aboveground part 72 hours after spraying; Non-treating Section = 100
Experimental: as §1

Tobacco = conditions: 500 ml per stock sprayed on foliage, aboveground part 72 hours after spraying; Non-treating Section = 100
Experimental: as §1

[3] = system: various pathogenic bacteria of plants including Pyricularia oryzae; conditions: antibacterial activity; stated as known, no test described; cited from earlier work
rice plant “Nihonbare” [4] = test: Test 11: production of Sakuranetin and Momilactone-A in wounded rice blades treated with L-cysteine/D-glucose and comparative solutions; conditions: rice fifth blades, 25 μl test solution on 1 mm cuts, 60 hours at 25° C. under light

CSCCC(N)C(=O)O (racemic) [Section M1, DL-methionine]
Amount of Momilactone-A (rice plant “Nihonbare” [1]): 55.89 ng/spot
Amount of Sakuranetin (rice plant “Nihonbare” [1]): 122.56 ng/spot
Necrosis Ratio = (necrosis area + decay area)/total area [2]: 7.8%
Pisatin (Podded pea), produced amount per unit weight (Podded pea): 4,522
Griceorin (Soybean), produced amount per unit weight (Soybean): 1,910
Vetablugarin (Beat), produced amount per unit weight (Beat): 1,810
Ricitin (Potato), produced amount per unit weight (Potato): 590
6-Methoxymelain (Carrot), produced amount per unit weight (Carrot): 3,222
Blacinin (Chinese cabbage), produced amount per unit weight (Chinese cabbage): 18,600
Ricitin (Tomato), produced amount per unit weight (Tomato): 10,039
Lubimin (Eggplant), produced amount per unit weight (Eggplant): 23,070
α-Vinipherin (Grape), produced amount per unit weight (Grape): 962
Capsydiol (Tobacco), produced amount per unit weight (Tobacco): 1,907

C=C[C@]1(C)CC[C@@H]2C(=C[C@H]3OC(=O)[C@@]4(C)C(=O)CC[C@@]2(C)[C@@H]34)C1 [Momilactone-A]
ED50 [3]: 15 ppm

COc1cc(O)c2c(c1)O[C@H](c1ccc(O)cc1)CC2=O [Sakuranetin]
ED50 [3]: 15 ppm

N.N.O=S(=O)(O)O [Section AS1, Ammonium sulfate]
Amount of Momilactone-A (rice plant “Nihonbare” [4]): not detected
Amount of Sakuranetin (rice plant “Nihonbare” [4]): not detected

N[C@@H](CS)C(=O)O [Section C1, L-cysteine]
Amount of Momilactone-A (rice plant “Nihonbare” [4]): 38.99 ng/spot
Amount of Sakuranetin (rice plant “Nihonbare” [4]): 79.10 ng/spot

O=C[C@H](O)[C@@H](O)[C@H](O)[C@H](O)CO [Section GL1, D-glucose]
Amount of Momilactone-A (rice plant “Nihonbare” [4]): not detected
Amount of Sakuranetin (rice plant “Nihonbare” [4]): not detected

N[C@@H](CCC(=O)N[C@@H](CS)C(=O)NCC(=O)O)C(=O)O [Section GT1, Glutathione of reduced type]
Amount of Momilactone-A (rice plant “Nihonbare” [4]): not detected
Amount of Sakuranetin (rice plant “Nihonbare” [4]): not detected
